Patent publication US20250195432A1, “METHODS FOR PREPARING AND CHARACTERIZING ZEIN-FUCOIDAN CONJUGATED NANO-LIPOSOME FOR PHYTOL ENCAPSULATION” (Zhejiang Academy of Forestry, priority 2023, published 2025)

Experiments:
[1] = Hydroxyl radical scavenging activity; format: biochemical; conditions: 37° C., 30 minutes, absorbance 536 nm
Procedure: • mixing 1.00 mL of the nanoliposomes with 1.00 mL of 9.00 mmol/L salicylic acid ethanol solution, 1.00 mL of 9.00 mmol/L FeCl2, and 1.00 mL of 8.80 mmol/L H2O2; incubating a resulting mixture in the dark at 37° C. for 30 minutes; measuring an absorbance of a reaction mixture at 536 nm using a multifunctional microplate reader and calculating a hydroxyl radical scavenging rate;
A sample of the nanoliposome (1.00 mL) was mixed with an ethanol solution of salicylic acid (1.00 mL, 9.00 mmol/L), FeCl2 (1.00 mL, 9.00 mmol/L), and H2O2(1.00 mL, 8.80 mmol/L) and incubated in the dark at 37° C. for 30 minutes. The absorbance of the reaction mixture was measured at 536 nm using a multifunctional microplate reader (Varioskan Flash, Thermo Fisher Scientific, Massachusetts, USA). The hydroxyl radical scavenging rate was calculated using the following formula: […]

[2] = test system: HepG2 cells; assay: Intracellular ROS level (DCFH-DA) in HepG2 cells with TBHP-induced oxidative damage; format: cell-based, human; conditions: for ROS level (percentage of the negative control group): HepG2, pre-treatment 100 μg/mL phytol 24 h, then TBHP (10 μg/mL)
Procedure: • […], P-ZF, P-NL, and P-NL-ZF to the plate for another 24 hours of incubation; […]; measuring a cell survival rate, an intracellular reactive oxygen species (ROS) level, malondialdehyde (MDA) content, and superoxide dismutase (SOD) activity.
(§1) • placing the digested HepG2 cells in a culture dish and performing a treatment as in step (O); adding 10.00 μM 2′,7′-dichlorodihydrofluorescein diacetate (DCFH-DA) and incubating for 0.5 hours, followed by washing with PBS (pH 7.4); allowing intracellular esterase to cleave the DCFH-DA, which is then oxidized to highly fluorescent dichlorofluorescein in the presence of ROS; measuring a fluorescence intensity of the 96-well plate using a multifunctional microplate reader at an excitation wavelength of 485 nm and an emission wavelength of 528 nm, expressing the intracellular ROS level as a percentage of the negative control group; • assessing the SOD activity and the MDA content by culturing the digested HepG2 cells for 24 hours; after the treatment as in step (O), adding 300 μL of lysis buffer and incubating on ice for 30 minutes; centrifuging at 11,000×g for 5 minutes at 4° C. and collecting a resulting supernatant; and quantifying the SOD activity and the MDA content according to instructions of SOD and MDA assay kits; and
• seeding the digested cells at a density of 3×10^5 cells per well into a 6-well plate and incubating for 24 hours; after incubation, aspirating a culture medium and continuing with the grouping and treatment as in step (0); after 24 hours, replacing an original solution with 25 μM DCFH-DA solution and incubating for 60 minutes; washing the cells twice with PBS to remove unabsorbed probes; observing a fluorescence generated within the cells by placing the 6-well plate under a fluorescence microscope equipped with an FITC fluorescence channel.
HepG2 cells, after digestion, were seeded at a density of 1×10^5 cells/well in a 96-well cell culture plate and were placed in a cell culture incubator. […]

[3] = Photostability under UV light, phytol retention by GC-MS; format: physicochemical; conditions: after 16 hours of UV exposure; free phytol in ethanol
Procedure: • exposing a sample to ultraviolet (UV) light for various irradiation durations: […], 90 minutes, 120 minutes, 150 minutes, 180 minutes, 210 minutes, 240 minutes, 270 minutes, […]; and determining retention of phytol content using GC-MS.
To assess the photostability of phytol loaded in nanoparticles (P-ZF, P-NL, and P-NL-ZF) as well as free phytol dissolved in ethanol, samples were irradiated under UV light for various durations: […], 90 minutes, 120 minutes, 150 minutes, 180 minutes, 210 minutes, 240 minutes, 270 minutes, […] The content of retained phytol was determined using GC-MS as described in Section 2.5.2. The calculation formula for retention rate is given as follows: […]

[4] = test system: HepG2 cells; assay: SOD activity in HepG2 cells with TBHP-induced oxidative damage; format: cell-based, human; conditions: HepG2, TBHP (10 μg/mL)
Procedure: (§2) • culturing the digested HepG2 cells for 24 hours and then adding […] concentrations of PHY, P-ZF, P-NL, and P-NL-ZF to the plate for another 24 hours of incubation; […]; measuring a cell survival rate, an intracellular reactive oxygen species (ROS) level, malondialdehyde (MDA) content, and superoxide dismutase (SOD) activity.
as §1, with “kits; and […]” for “kits; and”

[5] = test system: HepG2 cells; assay: TBHP-induced oxidative damage concentration, cell viability by CCK-8; format: cell-based, human; conditions: HepG2, TBHP 10 μg/mL, 24 hours
Procedure: HepG2 cells, after digestion, were seeded at a density of 1×10^5 cells/well in a 96-well cell culture plate and were incubated in a cell culture incubator. […] After 24 hours of incubation, the culture medium was removed, and the working solutions of TBHP at different concentrations were added to the wells, followed by an additional 24 hours of incubation. After the incubation period, the vitality of the HepG2 cells was assessed using the CCK-8 method, as detailed in section 2.6.4.

[6] = test system: HepG2 cells; assay: MDA content in HepG2 cells with TBHP-induced oxidative damage; format: cell-based, human; conditions: HepG2, TBHP (10 μg/mL)
Procedure: as §2
as §1, with “kits; and […]” for “kits; and”

Compound	scavenging capability against •OH radicals [1]	reduction of ROS level compared to the positive control (328.16%) ([2]; HepG2, TBHP (10 μg/mL))	ROS level (percentage of the negative control group) [2]	retention rate of phytol under UV [3]	SOD activity [4]	cell viability [5]	MDA level (lipid peroxidation) [6]
(2E,3,7R,11R,15)-tetramethyl-hexadecen-1-ol [PHY]	40%	97.44%	230.72%	1.21%	11.61 U/mg protein	–	–
CC(C)(C)OO [TBHP, Tert-Butyl Hydrogen Peroxide]	–	–	328.42%	–	8.43 U/mg protein	65.67%	significant increase in MDA
